Series [1] concerns DOX-induced cardio and hepatotoxicities. Briefly: Doxorubicin (DOX)-induced acute heart failure animal model. The series is classed as in vivo, mice. As for the experimental part: This animal model is associated with an increase in oxidative stress and causes significant hepatopathy after DOX injection.
Specifically, 20-week-old male mice were injected intraperitoneally once with 20 mg/kg of DOX. […] Mortality was observed up to 10 days after DOX administration. After 10 days, the mice were sacrificed and the expressions of enzymes in the heart and liver tissues were analyzed. The cardiac function of the mice was also measured by echocardiogram.

Series [2] can be described thus: H2O2 scavenging by PVAX or MnP-PVAX microparticles (amplex red assay). The note with it: 10 μM H2O2, 1 mg microparticles, 37° C., 6 or 24 h. As for the experimental part:
After short centrifugation, the concentration of H2O2 in the supernatant was measured using an amplex red assay (Invitrogen, US).

The test system of the next series is RAW 264.7 cells. Kind of series: NO production in LPS-treated cells (Griess reaction). The series is classed as cell-based. The note with it: LPS-treated RAW 264.7, Griess. The method, then: The concentration of NO was determined using a colorimetric assay based on the Griess reaction. 50 μL of cell culture medium was collected and given 100 μL of Griess reagent (6 mg/mL) at room temperature for 10 min, and then the NO concentration was determined by measuring the absorbance at 540 nm using a microplate reader (Synergy MX, BioTek Instruments, US). The NO standard curve was constructed using known concentrations of sodium nitrite.
For orientation: Griess reagent forms a coloured azo dye with nitrite.

Series [3] deals with RAW 264.7 cells activated with PMA. Briefly: ROS production in PMA-activated cells (DCFH-DA, flow cytometry). The series is classed as cell-based. The note with it: PMA-stimulated; VA 0.5 mM, PVAX 100 μg. The method, then:
The cells were treated with […] to stimulate the production of reactive oxygen species in the cells. After 4 hours, the cells were treated with DCFH-DA (dichlorofluorescin-diacetate), after which DCF ([…]) (a marker of intracellular oxidative stress) was analyzed using a flow cytometer (Becton Dickinson, US).
On the technique in general: Flow cytometry measures light scatter and fluorescence of single cells or particles in a stream.

Series [4] concerns OVA-induced allergic airway inflammation. Kind of series: Mouse model of ovalbumin (OVA)-induced allergic asthma. The series is classed as in vivo, BALB/c mice. The note with it: OVA-sensitized and challenged mice, ELISA. As for the experimental part: On days 15, 16 and 17, mice were challenged intranasally with 50 μg of OVA. […] A sham group was given PBS only. On day 19, the mice were sacrificed and lung lobes were isolated along with the trachea. Lungs were also lavaged with 500 μL of PBS introduced through the trachea. BALF (bronchiolavage fluid) was centrifuged at 300×g for 5 min, and cells were rinsed and resuspended with PBS. Aliquots of the cell suspension were applied to slides by Cytospin (Hanil, Korea) at 500×g for 5 minutes allowed to air dry and stained with modified Wright's stain (Hema-3, Fisher Scientific). The numbers of macrophages, eosinophils, neutrophils and lymphocytes were determined morphologically and a minimum of 200 cells per slide were counted under the microscope (Eclipse, Nikon, Japan). The level of TNF-α in the supernatant of BALF was measured with an ELISA kit as advised by manufacturer (eBioScience, San Diego, Calif.). Lungs were perfused with PBS, removed and fixed in 4% buffered formalin. Lungs were embedded in paraffin and serial paraffin sections (3 μm) were cut. The sections were stained with hematoxylin (Yeongdong Pharma, Korea) and eosin (Showa Chemicals, Japan). Results are illustrated in FIGS. 49-51.
Background: ELISA stands for enzyme-linked immunosorbent assay.

The nature of series [5]: Particle stability versus loading ratio. The series is classed as physicochemical. The text has this:
However, PVAX allowed greater ratio of VA-CHDM (up to 60%), providing greater therapeutic effects without significant compromise of the stability.

Setting [6] is: echocardiogram, DOX-treated mice.

Molecule `COc1cccc2c1C(=O)c1c(O)c3c(c(O)c1C2=O)C[C@@](O)(C(=O)CO)C[C@@H]3O[C@H]1C[C@H](N)[C@H](O)[C@H](C)O1` [DOX, doxorubicin] gave a survival in series [1] (10 days after DOX, p<0.05) of 35%. In addition, in series [1] (setting [6]), the “ejection fraction (EF), mean” value came out at 25.54 and the “fractional shortening (FS), mean” value is 50.41. The mortality rate in series [1] (observation up to 10 days after DOX 20 mg/kg i.p., PVAX daily) amounted to 65%.

For the molecule `C1=Cc2cc3ccc(cc4nc(cc5ccc(cc1n2)[nH]5)C=C4)[nH]3.[Mn]` [MnP, manganese porphyrin], the H2O2 scavenging activity result in series [2] was “H2O2 scavenging activity in a time-dependent manner”. Further, the “inhibitory effects on NO production” value in the series with RAW 264.7 cells is reported as “inhibitory effects on NO production, not significant”.

Consider `COc1cc(CO)ccc1O` [VA, 4-(hydroxymethyl)-2-methoxyphenol], for which, in series [3], the “intracellular ROS generation (DCF fluorescence)” value is on record as “only slightly suppressed ROS generation”. For the same molecule, the “inhibitory effects on NO production” value in the series on RAW 264.7 cells is given as “inhibitory effects on NO production, not significant”. In addition, the “expression of TNF-α in BALF” value in series [4] was “suppressed the expression of TNF-α”.

For “poly(p-hydroxy-benzyl alcohol (HBA)-oxalic acid) copolymer [HPOX]”, the “particle stability / feasibility of loading” value in series [5] was “not feasible due to instability of the particles”.

These data come from patent US9844564B2 (Industrial Cooperation Foundation Chonbuk National …, priority 2012, dated 2017).
